The values below are quoted from earlier work in patent US8278324B2, “Oxadiazole derivatives active on sphingosine-1-phosphate (S1P)” (Glaxo Group Limited, priority 2007, dated 2012).

One data set deals with circulating lymphocytes. The following applies: animals and man.
For data set [1] the following is noted: clinical studies, first 24 hours of treatment.

Take `CCCCCCCCc1ccc(CCC(N)(CO)CO)cc1` [FTY720]: the “effect on circulating lymphocytes” value in the data set with circulating lymphocytes was “reduce circulating lymphocytes”. The bradycardia result in data set [1] is listed as “results in bradycardia”.
